Test results taken from the NIST ThermoML archive (doi:10.1021/je1006482).

What was measured:
[1] = 101.33 kPa, Liquid
[2] = excess molar enthalpy (molar enthalpy of mixing); xn = mol fraction of the nth substance listed; conditions: 101.3 kPa, Liquid, Flow calorimetry

COC(=O)CC(C)=O [methyl 3-oxobutanoate]
[1]
Conditions | mass density [kg/m3]
288.2 K | 1081.93
298.2 K | 1071.18
313.2 K | 1055.01
328.2 K | 1038.78
338.2 K | 1027.89
348.2 K | 1016.95

COC(=O)CC(C)=O [methyl 3-oxobutanoate] + CC(C)O
excess molar enthalpy [kcal/mol], [2]
Conditions | 288.2 K | 298.2 K | 313.2 K | 328.2 K
x1 = 0.1002 | 0.228 | 0.251 | 0.272 | 0.285
x1 = 0.2005 | 0.349 | 0.394 | 0.443 | 0.469
x1 = 0.2998 | 0.422 | 0.48 | 0.542 | 0.576
x1 = 0.35 | 0.448 | 0.504 | 0.569 | 0.605
x1 = 0.4004 | 0.461 | 0.525 | 0.59 | 0.633
x1 = 0.4493 | 0.473 | 0.536 | 0.601 | 0.639
x1 = 0.4998 | 0.476 | 0.536 | 0.598 | 0.634
x1 = 0.5504 | 0.473 | 0.531 | 0.589 | 0.62
x1 = 0.6008 | 0.462 | 0.518 | 0.565 | 0.593
x1 = 0.6492 | 0.444 | 0.494 | 0.536 | 0.558
x1 = 0.6991 | 0.418 | 0.461 | 0.493 | 0.51
x1 = 0.7997 | 0.336 | 0.361 | 0.374 | 0.382
x1 = 0.9002 | 0.194 | 0.206 | 0.205 | 0.211

COC(=O)CC(C)=O [methyl 3-oxobutanoate] + CCCO
excess molar enthalpy [kcal/mol], [2]
Conditions | 288.2 K | 298.2 K | 313.2 K | 328.2 K
x1 = 0.0994 | 0.197 | 0.219 | 0.244 | 0.262
x1 = 0.1995 | 0.311 | 0.351 | 0.4 | 0.433
x1 = 0.2993 | 0.38 | 0.43 | 0.495 | 0.538
x1 = 0.3492 | 0.403 | 0.458 | 0.527 | 0.568
x1 = 0.3995 | 0.42 | 0.477 | 0.549 | 0.59
x1 = 0.45 | 0.432 | 0.486 | 0.56 | 0.599
x1 = 0.5008 | 0.435 | 0.491 | 0.561 | 0.601
x1 = 0.5498 | 0.434 | 0.487 | 0.553 | 0.587
x1 = 0.6007 | 0.425 | 0.476 | 0.534 | 0.564
x1 = 0.6495 | 0.41 | 0.457 | 0.507 | 0.533
x1 = 0.7 | 0.387 | 0.427 | 0.471 | 0.488
x1 = 0.8001 | 0.314 | 0.337 | 0.361 | 0.37
x1 = 0.9003 | 0.186 | 0.192 | 0.203 | 0.206

COC(=O)CC(C)=O [methyl 3-oxobutanoate] + CCO
excess molar enthalpy [kcal/mol], [2]
Conditions | 288.2 K | 298.2 K | 313.2 K | 328.2 K
x1 = 0.1003 | 0.175 | 0.188 | 0.21 | 0.228
x1 = 0.2002 | 0.278 | 0.303 | 0.343 | 0.37
x1 = 0.2995 | 0.34 | 0.377 | 0.424 | 0.451
x1 = 0.3494 | 0.361 | 0.399 | 0.453 | 0.479
x1 = 0.3995 | 0.375 | 0.416 | 0.47 | 0.501
x1 = 0.4495 | 0.384 | 0.426 | 0.48 | 0.509
x1 = 0.5008 | 0.387 | 0.428 | 0.481 | 0.51
x1 = 0.5497 | 0.384 | 0.424 | 0.476 | 0.502
x1 = 0.5995 | 0.375 | 0.414 | 0.461 | 0.483
x1 = 0.65 | 0.36 | 0.395 | 0.44 | 0.457
x1 = 0.7011 | 0.337 | 0.366 | 0.405 | 0.419
x1 = 0.7996 | 0.269 | 0.288 | 0.313 | 0.319
x1 = 0.9006 | 0.155 | 0.164 | 0.173 | 0.174

COC(=O)CC(C)=O [methyl 3-oxobutanoate] + CO
excess molar enthalpy [kcal/mol], [2]
Conditions | 288.2 K | 298.2 K | 313.2 K | 328.2 K
x1 = 0.1004 | 0.127 | 0.136 | 0.148 | 0.159
x1 = 0.2001 | 0.209 | 0.222 | 0.246 | 0.261
x1 = 0.3 | 0.262 | 0.279 | 0.306 | 0.329
x1 = 0.3506 | 0.28 | 0.298 | 0.328 | 0.35
x1 = 0.4003 | 0.293 | 0.309 | 0.34 | 0.364
x1 = 0.4497 | 0.298 | 0.315 | 0.347 | 0.37
x1 = 0.5001 | 0.301 | 0.319 | 0.348 | 0.37
x1 = 0.551 | 0.298 | 0.314 | 0.345 | 0.366
x1 = 0.5993 | 0.289 | 0.307 | 0.335 | 0.353
x1 = 0.6492 | 0.277 | 0.29 | 0.316 | 0.332
x1 = 0.7004 | 0.257 | 0.272 | 0.292 | 0.306
x1 = 0.7993 | 0.202 | 0.21 | 0.222 | 0.233
x1 = 0.8988 | 0.118 | 0.117 | 0.125 | 0.129
